Measurements reported in patent publication US8980906B2, “Pyridonemorphinan analogs and biological activity on opioid receptors” (Purdue Pharma L.P., priority 2012, dated 2015).
Where two headings read alike, the source gives them in different places.

Columns and labels:
κ-opioid receptor [1] = biological target: T1, κ-opioid receptor (Homo sapiens (Human), UniProt P41145); test: κ-opioid receptor radioligand dose-displacement binding assay ([3H]-U69,593); conditions: binding affinity, [3H]-U69,593 displacement
Description: κ-Opioid Receptor Binding Assay Procedures: Membranes from HEK-293 cells, CHO or U-2 OS cells expressing the recombinant human kappa opioid receptor (κ) were prepared by lysing cells in ice cold hypotonic buffer (2.5 mM MgCl2, 50 mM HEPES, pH 7.4) (10 mL/10 cm dish) followed by homogenization with a tissue grinder/Teflon pestle. Membranes were collected by centrifugation at 30,000×g for 15 min at 4° C. and pellets were resuspended in hypotonic buffer to a final concentration of 1-3 mg/mL. Protein concentrations were determined using the BioRad protein assay reagent with bovine serum albumen as standard, Aliquots of κ receptor membranes were stored at […].
Radioligand dose displacement assays used 0.4 nM [^3H]-U69,593 (GE Healthcare, Piscataway, N.J.; 40 Ci/mmole) with 15 μg membrane protein (recombinant κ opioid receptor expressed in HEK 293 cells; in-house prep) in a final volume of 200 μl binding buffer (5% DMSO, 50 mM Trizma base, pH 7.4). Non-specific binding was determined in the presence of 10 μM unlabeled naloxone or U69,593. All reactions were performed in 96-well polypropylene plates for 1 hour at a temperature of about 25° C. Binding reactions were terminated by rapid filtration onto 96-well Unifilter GF/C filter plates (Perkin Elmer, Shelton, Conn.) presoaked in 0.5% polyethylenimine (Sigma). Harvesting was performed using a 96-well tissue harvester (Perkin Elmer, Shelton, Conn.) followed by five filtration washes with 200 μl ice-cold binding buffer. Filter plates were subsequently dried at 50° C. for 1-2 hours. Fifty μl/well scintillation cocktail (Perkin Elmer, Shelton, Conn.) was added and plates were counted in a Packard Top-Count for 1 min/well.

μ-opioid receptor [2] = biological target: T2, μ-opioid receptor (Homo sapiens (Human), UniProt P35372); test: μ-opioid receptor [35S]GTPγS functional assay, HEK-293 or CHO cells; format: biochemical
Description: μ-Opioid Receptor Functional Assay Procedures: [^35S]GTPγS functional assays were conducted using freshly thawed μ-receptor membranes prepared in-house from a cell line expressing recombinant μ opioid receptor in a HEK-293, CHO or U-2 OS cell background, or purchased from a commercial source (Perkin Elmer, Shelton, Conn.; or DiscovRx, Fremont, Calif.). Assay reactions were prepared by sequentially adding the following reagents to binding buffer (100 mM NaCl, 10 mM MgCl2, 20 mM HEPES, pH 7.4) on ice (final concentrations indicated): membrane protein (0.026 mg/mL), saponin ([…]), GDP ([…]) and [^35S]GTPγS (0.20 nM; Perkin Elmer, Shelton, Conn.). The prepared membrane solution (190 μl/well) was transferred to 96-shallow well polypropylene plates containing 10 μl of 20× concentrated stock solutions of the agonist [D-Ala^2, N-methyl-Phe^4 Gly-ol^5]-enkephalin (DAMGO) prepared in dimethyl sulfoxide (DMSO). Plates were incubated for 30 min at about 25° C. with shaking. Reactions were terminated by rapid filtration onto 96-well Unifilter GF/B filter plates (Perkin Elmer, Shelton, Conn.) using a 96-well tissue harvester (Perkin Elmer, Shelton, Conn.) followed by three filtration washes with 200 μl of ice-cold wash buffer (10 mM NaH2PO4, 10 mM Na2HPO4, pH 7.4). Filter plates were subsequently dried at 50° C. for 2-3 hours. BetaScint scintillation cocktail (Perkin Elmer, Shelton, Conn.) was added (50 μl/well) and plates were counted using a Packard Top-Count for 1 min/well. Data were analyzed using the sigmoidal dose-response curve fitting functions in GraphPad PRISM v. 3.0, or an in-house function for non-linear, sigmoidal dose-response curve-fitting.
μ-Opioid Receptor Functional Data: μ GTP EC50 is the concentration of a compound providing 50% of the maximal response for the compound at a μ-opioid receptor.
μ GTP Emax (%) is the maximal effect elicited by a compound relative to the effect elicited by DAMGO, a standard μ agonist. Generally, the μ GTP Emax (%) value measures the efficacy of a compound to treat or prevent pain or other Conditions.
(§1) In TABLE 2, activity response of certain Compounds of the Invention to the μ-, δ- and κ-opioid receptors was determined as described above for functional assays using HEK-293 or CHO cells.

κ-opioid receptor [3] = biological target: T1, κ-opioid receptor; test: κ-opioid receptor [35S]GTPγS functional assay, HEK-293 or CHO cells; format: biochemical
Description: κ-Opioid Receptor Functional Assay Procedures: Functional [^35S]GTPγS binding assays were conducted as follows. κ opioid receptor membrane solution was prepared by sequentially adding final concentrations of 0.026 μg/μl κ membrane protein (in-house), 10 μg/mL saponin, 3 μM GDP and 0.20 nM [^35S]GTPγS to binding buffer (100 mM NaCl, 10 mM MgCl2, 20 mM HEPES, pH 7.4) on ice. The prepared membrane solution (190 μl/well) was transferred to 96-shallow well polypropylene plates containing 10 μl of 20× concentrated stock solutions of agonist prepared in DMSO. Plates were incubated for 30 min at a temperature of about 25° C. with shaking. Reactions were terminated by rapid filtration onto 96-well Unifilter GF/B filter plates (Perkin Elmer, Shelton, Conn.) using a 96-well tissue harvester (Packard) and followed by three filtration washes with 200 μl ice-cold binding buffer (10 mM NaH2PO4, 10 mM Na2HPO4, pH 7.4). Filter plates were subsequently dried at 50° C. for 2-3 hours. Fifty μl/well scintillation cocktail (Perkin Elmer, Shelton, Conn.) was added and plates were counted in a Packard Top-Count for 1 min/well.
κ-Opioid Receptor Functional Data: κ GTP EC50 is the concentration of a compound providing 50% of the maximal response for the compound at a κ receptor.
κ GTP Emax (%) is the maximal effect elicited by a compound relative to the effect elicited by U69,593.
as §1

μ-opioid receptor [4] = biological target: T2, μ-opioid receptor; test: μ-opioid receptor radioligand dose-displacement binding assay ([3H]-diprenorphine); conditions: binding affinity
Description: μ-Opioid Receptor Binding Assay Procedures: Radioligand dose-displacement binding assays for μ-opioid receptors used 0.3 nM [^3H]-diprenorphine (Perkin Elmer, Shelton, Conn.), with […] membrane protein/well in a final volume of 500 μl binding buffer (10 mM MgCl2, 1 mM EDTA, 5% DMSO, 50 mM HEPES, pH 7.4). Reactions were carried out in the absence or presence of increasing concentrations of unlabeled naloxone. All reactions were conducted in 96-deep well polypropylene plates for 2 hours at room temperature. Binding reactions were terminated by rapid filtration onto 96-well Unifilter GF/C filter plates (Perkin Elmer, Shelton, Conn.), presoaked in 0.5% polyethylenimine using a 96-well tissue harvester (Perkin Elmer, Shelton, Conn.) followed by performing three filtration washes with 500 μl of ice-cold binding buffer. Filter plates were subsequently dried at 50° C. for 2-3 hours. BetaScint scintillation cocktail (Perkin Elmer, Shelton, Conn.) was added (50 μl/well), and plates were counted using a Packard Top-Count for 1 min/well. The data were analyzed using the one-site competition curve fitting functions in GraphPad PRISM™ v. 3.0 or higher (San Diego, Calif.), or an in-house function for one-site competition curve-fitting.

[5] = relative to U69,593, HEK-293 or CHO cells
[6] = relative to DAMGO, HEK-293 or CHO cells
[7] = [3H]-diprenorphine displacement, read-out: Ki (nM) Opioid Receptor μ

| Structure (SMILES) | Ki (κ-opioid receptor [1]) | EC50 (μ-opioid receptor [2]) | EC50 (κ-opioid receptor [3]) | other results |
| --- | --- | --- | --- | --- |
| COc1ccc2c(c1)[C@]13CCN(CC4CC4)[C@H](C2)[C@]1(O)Cc1cc(C(N)=O)c(=O)[nH]c1C3 [Compound 4, (6R,6aS,12aR)-15-(cyclopropylmethyl)-6a-hydroxy-2-methoxy-10-oxo-6,6a,7,10,11,12-hexahydro-5H-6,12a-(epiminoethano)naphtho[2,1-g]quinoline-9-carboxamide] | 292 ± 17 nM | > 20000 nM | 5380 ± 489 nM | Emax (κ-opioid receptor [3]; [5]): 39.7 ± 5.78% |
| COc1ccc2c(c1)[C@]13CCN(CC4CC4)[C@H](C2)[C@@H]1Cc1cc(C(N)=O)c(=O)[nH]c1C3 [Compound 6, (6R,6aR,12aS)-15-(cyclopropylmethyl)-2-methoxy-10-oxo-6,6a,7,10,11,12-hexahydro-5H-6,12a-(epiminoethano)naphtho[2,1-g]quinoline-9-carboxamide] | 35.7 ± 2.74 nM | 528 ± 121 nM | 2980 ± 587 nM | Emax (μ-opioid receptor [2]; [6]): 19.7 ± 2.02%; Emax (κ-opioid receptor [3]; [5]): 59.3 ± 2.33% |
| COc1ccc2c(c1)[C@]13CCN(CC4CC4)[C@H](C2)[C@@H]1Cc1cc(C(=O)O)c(=O)[nH]c1C3 [Compound 10, (6R,6aR,12aS)-15-(cyclopropylmethyl)-2-methoxy-10-oxo-6,6a,7,10,11,12-hexahydro-5H-6,12a-(epiminoethano)naphtho[2,1-g]quinoline-9-carboxylic acid] | 183 ± 23.3 nM | – | – | EC50 (μ-opioid receptor [2]; GTPγS, HEK-293 or CHO cells, read-out: μ EC50): 225 ± 89.6 nM; μ Emax (%) (μ-opioid receptor [2]; [6]): 25.67 ± 0.88%; EC50 (κ-opioid receptor [3]; GTPγS, HEK-293 or CHO cells, read-out: κ EC50): 3490 ± 636 nM; κ Emax (%) (κ-opioid receptor [3]; [5]): 37.75 ± 1.70% |
| NC(=O)CNC(=O)c1cc2c([nH]c1=O)C[C@]13CCN(CC4CC4)[C@H](Cc4ccc(O)cc41)[C@]3(O)C2 [Compound 14, (6R,6aS,12aR)—N-(2-amino-2-oxoethyl)-15-(cyclopropylmethyl)-2,6a-dihydroxy-10-oxo-6,6a,7,10,11,12-hexahydro-5H-6,12a-(epiminoethano)naphtho[2,1-g]quinoline-9-carboxamide] | 1.53 ± 0.26 nM | > 20000 nM | > 20000 nM | – |
| C[C@H](NC(=O)c1cc2c([nH]c1=O)C[C@]13CCN(CC4CC4)[C@H](Cc4ccc(O)cc41)[C@]3(O)C2)C(N)=O [Compound 16] | 1.05 ± 0.22 nM | 6.44 ± 0.41 nM | > 20000 nM | Emax (μ-opioid receptor [2]; [6]): 14.7 ± 3.28% |
| NC(=O)[C@H](Cc1ccccc1)NC(=O)c1cc2c([nH]c1=O)C[C@]13CCN(CC4CC4)[C@H](Cc4ccc(O)cc41)[C@]3(O)C2 [Compound 17, (6R,6aS,12aR)—N—((S)-1-amino-1-oxo-3-phenylpropan-2-yl)-15-(cyclopropylmethyl)-2,6a-dihydroxy-10-oxo-6,6a,7,10,11,12-hexahydro-5H-6,12a-(epiminoethano)naphtho[2,1-g]quinoline-9-carboxamide] | 0.85 ± 0.15 nM | > 20000 nM | > 20000 nM | Emax (μ-opioid receptor [2]; [6]): -0.33 ± 0.67% |
| NC(=O)[C@@H]1CCCN1C(=O)c1cc2c([nH]c1=O)C[C@]13CCN(CC4CC4)[C@H](Cc4ccc(O)cc41)[C@]3(O)C2 [Compound 19, (S)-1-((6R,6aS,12aR)-15-(cyclopropylmethyl)-2,6a-dihydroxy-10-oxo-6,6a,7,10,11,12-hexahydro-5H-6,12a-(epiminoethano)naphtho[2,1-g]quinoline-9-carbonyl)pyrrolidine-2-carboxamide] | 0.97 ± 0.23 nM | > 20000 nM | > 20000 nM | – |
| NC(=O)C[C@H](NC(=O)c1cc2c([nH]c1=O)C[C@]13CCN(CC4CC4)[C@H](Cc4ccc(O)cc41)[C@]3(O)C2)C(N)=O [Compound 20, (S)-2-((6R,6aS,12aR)-15-(cyclopropylmethyl)-2,6a-dihydroxy-10-oxo-6,6a,7,10,11,12-hexahydro-5H-6,12a-(epiminoethano)naphtho[2,1-g]quinoline-9-carboxamido)succinamide] | 2.59 ± 0.99 nM | > 20000 nM | > 20000 nM | – |
| COC(=O)c1cc2c([nH]c1=O)C[C@]13CCN(C)[C@H](Cc4ccc(OC)cc41)[C@]3(O)C2 [Compound 27, (6R,6aS,12aR)-methyl 15-(methyl)-6a-hydroxy-2-methoxy-10-oxo-6,6a,7,10,11,12-hexahydro-5H-6,12a-(epiminoethano)naphtho[2,1-g]quinoline-9-carboxylate] | 3080 ± 128 nM | – | – | Ki (μ-opioid receptor [4]; bound given in μM, read-out: Ki Opioid Receptor μ): > 20 µM |
| COc1ccc2c(c1)[C@]13CCN(C)[C@H](C2)[C@]1(O)Cc1cc(C(N)=O)c(=O)[nH]c1C3 [Compound 28, (6R,6aS,12aR)-15-(methyl)-6a-hydroxy-2-methoxy-10-oxo-6,6a,7,10,11,12-hexahydro-5H-6,12a-(epiminoethano)naphtho[2,1-g]quinoline-9-carboxamide] | 12300 nM | – | – | Ki (μ-opioid receptor [4]; [7]): 14.4 ± 4.14 µM |
| CN1CC[C@]23Cc4[nH]c(=O)c(C(N)=O)cc4C[C@@]2(O)[C@H]1Cc1ccc(O)cc13 [Compound 29, (6R,6aS,12aR)-15-(methyl)-2,6a-dihydroxy-10-oxo-6,6a,7,10,11,12-hexahydro-5H-6,12a-(epiminoethano)naphtho[2,1-g]quinoline-9-carboxamide] | 25.3 ± 4.86 nM | – | – | Ki (μ-opioid receptor [4]; [7]): 0.651 ± 0.101 µM |
